Laboratory results published in patent US12275745B2, “Therapeutic compounds and methods of use” (Genentech, Inc., priority 2021, dated 2025).

What was measured:
TEAD3 = TEAD3 (Homo sapiens, UniProt Q99594); assay: TR-FRET (Lipid HTRF) TEAD lipid pocket probe displacement assay, TEAD3; assay type: binding; conditions: His-tagged TEAD3, biotinylated lipid pocket probe, 4 hours
TEAD2 = TEAD2 (Homo sapiens, UniProt Q15562); assay: biochemical;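 further: TR-FRET competition assay with His-tagged TEAD protein and a biotinylated lipid pocket probe, where probe displacement by compound lowers the signal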
TEAD1 = TEAD1 (Homo sapiens, UniProt P28347); assay: TR-FRET (Lipid HTRF) TEAD lipid pocket probe displacement assay, TEAD1; assay type: binding; conditions: His-tagged TEAD1, biotinylated lipid pocket probe, 4 hours
Procedure: (§1) His-tagged TEAD proteins are pre-incubated with TEAD project compounds for 30 minutes or 4 hours at room temperature. Biotinylated lipid pocket probes are then added to the TEAD/Compound mixture and incubated for 60 minutes at room temperature. The lipid pocket probe competes with the test compound for the TEAD lipid pocket until equilibrium is reached. After 60 minutes, Europium labelled anti-His (Perkin Elmer #AD0110) and XL665 labelled streptavidin (CIS Bio 610SAXAC) are added to the TEAD/test compound/lipid pocket mixture and incubated for 30 minutes or 4 hours. TR-FRET values are then measured using an EnVision multi-label plate reader (Perkin Elmer Cat #2104-001 0A.) If the lipid pocket probe binds to TEAD as expected, a TR-FRET signal results from the proximity of anti-His Eu and XL665. If a TEAD lipid pocket binder such as binds and displaces the lipid pocket probe, the disruption of the TEAD:probe interaction results in a decrease in TR-FRET signal. The potency of compounds as TEAD lipid pocket binders is determined by IC50 value generated using a non-linear 4 parameter curve fit.

TEAD4 = TEAD4 (Homo sapiens, UniProt Q15561); assay: TR-FRET (Lipid HTRF) TEAD lipid pocket probe displacement assay, TEAD4; assay type: binding; conditions: His-tagged TEAD4, biotinylated lipid pocket probe, 4 hours
Chain of TEAD4 (Q15561 whole entry, species assumed): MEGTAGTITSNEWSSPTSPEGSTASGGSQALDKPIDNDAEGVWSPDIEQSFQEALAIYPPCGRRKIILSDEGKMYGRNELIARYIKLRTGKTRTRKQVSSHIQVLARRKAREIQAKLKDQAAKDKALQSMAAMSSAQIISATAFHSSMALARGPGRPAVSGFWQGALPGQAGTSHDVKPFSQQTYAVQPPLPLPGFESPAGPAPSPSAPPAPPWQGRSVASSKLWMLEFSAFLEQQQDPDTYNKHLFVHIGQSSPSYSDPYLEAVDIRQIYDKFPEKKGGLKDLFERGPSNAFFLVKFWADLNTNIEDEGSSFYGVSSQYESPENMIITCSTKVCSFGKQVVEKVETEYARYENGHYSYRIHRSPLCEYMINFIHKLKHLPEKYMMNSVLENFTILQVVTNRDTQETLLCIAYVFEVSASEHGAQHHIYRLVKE
Procedure: as §1

Chain of TEAD2 (Q15562 whole entry, species assumed): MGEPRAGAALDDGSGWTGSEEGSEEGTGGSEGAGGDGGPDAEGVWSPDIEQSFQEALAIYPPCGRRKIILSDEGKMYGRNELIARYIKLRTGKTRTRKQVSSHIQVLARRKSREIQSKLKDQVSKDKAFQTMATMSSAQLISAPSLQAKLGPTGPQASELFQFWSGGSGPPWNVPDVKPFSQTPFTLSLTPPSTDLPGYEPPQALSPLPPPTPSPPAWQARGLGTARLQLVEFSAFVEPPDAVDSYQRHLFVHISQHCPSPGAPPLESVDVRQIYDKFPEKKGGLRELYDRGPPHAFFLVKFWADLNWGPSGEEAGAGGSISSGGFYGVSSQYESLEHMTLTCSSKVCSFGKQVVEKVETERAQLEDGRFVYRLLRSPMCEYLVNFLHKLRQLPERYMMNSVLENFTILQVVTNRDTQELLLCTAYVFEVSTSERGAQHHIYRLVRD
Chain of TEAD3 (Q99594 whole entry, species assumed): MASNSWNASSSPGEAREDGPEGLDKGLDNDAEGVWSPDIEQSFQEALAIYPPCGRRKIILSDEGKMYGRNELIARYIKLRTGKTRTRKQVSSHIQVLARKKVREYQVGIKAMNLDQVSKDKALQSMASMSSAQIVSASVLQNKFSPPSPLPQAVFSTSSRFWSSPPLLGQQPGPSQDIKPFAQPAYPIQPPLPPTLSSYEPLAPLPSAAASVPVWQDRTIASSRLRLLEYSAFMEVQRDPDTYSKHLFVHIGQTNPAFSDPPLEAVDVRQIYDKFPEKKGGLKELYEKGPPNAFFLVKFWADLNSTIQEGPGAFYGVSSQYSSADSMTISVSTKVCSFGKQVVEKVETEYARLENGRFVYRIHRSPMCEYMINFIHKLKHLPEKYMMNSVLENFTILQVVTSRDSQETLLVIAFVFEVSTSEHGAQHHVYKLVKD
Chain of TEAD1 (P28347 whole entry, species assumed): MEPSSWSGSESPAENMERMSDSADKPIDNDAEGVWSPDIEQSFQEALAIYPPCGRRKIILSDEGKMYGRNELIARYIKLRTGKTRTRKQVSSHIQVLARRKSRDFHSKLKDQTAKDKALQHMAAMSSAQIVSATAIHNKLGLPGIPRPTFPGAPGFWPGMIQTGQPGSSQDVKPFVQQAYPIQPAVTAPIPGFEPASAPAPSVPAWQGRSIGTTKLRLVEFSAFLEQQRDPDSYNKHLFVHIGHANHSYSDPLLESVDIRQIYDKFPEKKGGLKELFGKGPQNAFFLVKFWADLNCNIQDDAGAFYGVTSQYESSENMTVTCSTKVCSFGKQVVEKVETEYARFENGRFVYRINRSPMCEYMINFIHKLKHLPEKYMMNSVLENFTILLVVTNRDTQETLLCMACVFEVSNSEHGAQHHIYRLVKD

SMILES | IC50 (TEAD3) | IC50 (TEAD2) | IC50 (TEAD1) | IC50 (TEAD4)
C=CC(=O)N(C)Cc1cc(-c2ccc(OC(F)(F)F)cc2)c2nccn2c1 [Compound 38, N-methyl-N-[[8-[4-(trifluoromethoxy)phenyl]imidazo[1,2-a]pyridin-6-yl]methyl]prop-2-enamide] | 26 nM | 33 nM | 20 nM | 6.8 nM
C=CC(=O)NCc1cc(-c2ccc(OC(F)(F)F)cc2)c2ncn(C(F)F)c2c1CO [Compound 39, N-[[3-(difluoromethyl)-4-(hydroxymethyl)-7-[4-(trifluoromethoxy)phenyl]benzimidazol-5-yl]methyl]prop-2-enamide] | 50.5 nM | 9 nM | 8 nM | 24.5 nM
C=CC(=O)NCc1cc(-c2ccc(OC(F)(F)F)cc2)c2cccnc2c1C [Compound 43, N-[[8-methyl-5-[4-(trifluoromethoxy)phenyl]-7-quinolyl]methyl]prop-2-enamide] | 22 nM | 9.8 nM | 10 nM | 16 nM
C=CC(=O)NCc1cc(-c2ccc(OC(F)(F)F)cc2)c2cccnc2c1CO [Compound 44, N-[[8-(hydroxymethyl)-5-[4-(trifluoromethoxy)phenyl]-7-quinolyl]methyl]prop-2-enamide] | 18 nM | 16 nM | 11 nM | 54 nM
C=CC(=O)NCc1cc(-c2ccc(OC(F)(F)F)cc2)c2ncccc2c1CO [Compound 50, N-[[5-(hydroxymethyl)-8-[4-(trifluoromethoxy)phenyl]-6-quinolyl]methyl]prop-2-enamide] | 37 nM | 11 nM | 12 nM | 34 nM
C=C(F)C(=O)N1CC(c2cc(-c3ccc(OC(F)(F)F)cc3)c3ncn(C)c3c2CO)C1 [Compound 59, 2-fluoro-1-[3-[4-(hydroxymethyl)-3-methyl-7-[4-(trifluoromethoxy)phenyl]benzimidazol-5-yl]azetidin-1-yl]prop-2-en-1-one] | 380 nM | 37 nM | 18 nM | 81 nM
C=C(F)C(=O)NCc1cc(-c2ccc(OC(F)(F)F)cc2)c2ncn(C)c2c1CO [Compound 63, 2-fluoro-N-[[4-(hydroxymethyl)-3-methyl-7-[4-(trifluoromethoxy)phenyl]benzimidazol-5-yl]methyl]prop-2-enamide] | 310 nM | 76 nM | 110 nM | 80 nM
CN(Cc1cc(-c2ccc(OC(F)(F)F)cc2)c2ncn(C)c2c1CO)C(=O)/C=C/CO [Compound 64, (E)-4-hydroxy-N-[[4-(hydroxymethyl)-3-methyl-7-[4-(trifluoromethoxy)phenyl]benzimidazol-5-yl]methyl]-N-methyl-but-2-enamide] | 700 nM | 510 nM | 270 nM | 44 nM
C=C(F)C(=O)NCc1cc(-c2ccc(OC(F)(F)F)cc2)c2c(c1C#N)CCO2 [Compound 67, N-[[4-cyano-7-[4-(trifluoromethoxy)phenyl]-2,3-dihydrobenzofuran-5-yl]methyl]-2-fluoro-prop-2-enamide] | 420 nM | 340 nM | 93 nM | 140 nM
C=CC(=O)NCc1nc(-c2ccc(OC(F)(F)F)cc2)c2ncn(C)c2n1 [Compound 69, N-[[9-methyl-6-[4-(trifluoromethoxy)phenyl]purin-2-yl]methyl]prop-2-enamide] | 97 nM | 100 nM | 40 nM | 7.5 nM

Continued, values first:

IC50 (TEAD3) | IC50 (TEAD2) | IC50 (TEAD1) | IC50 (TEAD4) | SMILES
220 nM | 40 nM | 58 nM | 39 nM | C=CC(=O)NCc1nc(-c2ccc(OC(F)(F)F)cc2)c2ncn(C)c2c1CO [Compound 73, N-((7-(hydroxymethyl)-1-methyl-4-(4-(trifluoromethoxy)phenyl)-1H-imidazo[4,5-c]pyridin-6-yl)methyl)acrylamide]
110 nM | 4 nM | 11 nM | 2.5 nM | C=CC(=O)NCc1cc(-c2ccc(OC(F)(F)F)cc2)c2ncn(C)c2c1C(F)F [Compound 77, N-[[4-(difluoromethyl)-3-methyl-7-[4-(trifluoromethoxy)phenyl]benzimidazol-5-yl]methyl]prop-2-enamide]
840 nM | 110 nM | 130 nM | 740 nM | C=C(F)C(=O)NCc1cc(-c2ccc(OC(F)(F)F)cc2)c2nccnc2c1[C@@H](O)CO [Compound 80, (R)-N-((5-(1,2-Dihydroxyethyl)-8-(4-(trifluoromethoxy)phenyl)quinoxalin-6-yl)methyl)-2-fluoroacrylamide]
220 nM | 21 nM | 31 nM | 13 nM | O=C(NCc1cc(-c2ccc(OC(F)(F)F)cc2)c2nccnc2c1[C@@H](O)CO)C1=CCC1 [Compound 81, (R)-N-((5-(1,2-Dihydroxyethyl)-8-(4-(trifluoromethoxy)phenyl)quinoxalin-6-yl)methyl)cyclobut-1-ene-1-carboxamide]
38.7 nM | 21 nM | 26.7 nM | 48 nM | C=CC(=O)NCc1cc(-c2ccc(OC(F)(F)F)cc2)c2nccnc2c1CO [Compound 84, N-((5-(Hydroxymethyl)-8-(4-(trifluoromethoxy)phenyl)quinoxalin-6-yl)methyl)acrylamide]
127 nM | 121 nM | 78 nM | 88.7 nM | C=CC(=O)NCc1cc(-c2ccc(OC(F)(F)F)cc2)c2nccnc2c1C#N [Compound 85, N-((5-Cyano-8-(4-(trifluoromethoxy)phenyl)quinoxalin-6-yl)methyl)acrylamide]
230 nM | 38 nM | 120 nM | 32 nM | O=C(C1=CCC1)N1CC(c2cc(-c3ccc(OC(F)(F)F)cc3)c3nccnc3c2[C@@H](O)CO)C1 [Compound 86, (R)-Cyclobut-1-en-1-yl(3-(5-(1,2-dihydroxyethyl)-8-(4-(trifluoromethoxy)phenyl)quinoxalin-6-yl)azetidin-1-yl)methanone]
140 nM | 16 nM | 50 nM | 11 nM | O=C(C1=CCC1)N1CC(c2cc(-c3ccc(OC(F)(F)F)cc3)c3nccnc3c2[C@H](O)CO)C1 [Compound 87, (S)-Cyclobut-1-en-1-yl(3-(5-(1,2-dihydroxyethyl)-8-(4-(trifluoromethoxy)phenyl)quinoxalin-6-yl)azetidin-1-yl)methanone]
7.4 nM | 6.7 nM | 4.4 nM | 3.1 nM | C=CC(=O)N(C)Cc1cc(-c2ccc(OC(F)(F)F)cc2)c2c(c1CO)CCO2 [Compound 88, N-((4-(Hydroxymethyl)-7-(4-(trifluoromethoxy)phenyl)-2,3-dihydrobenzofuran-5-yl)methyl)-N-methylacrylamide]
1100 nM | 540 nM | 880 nM | 490 nM | C#Cc1ccc(-c2cc(CNC(=O)C=C)c(CO)c3c2OCC3)cc1 [Compound 93, N-((7-(4-Ethynylphenyl)-4-(hydroxymethyl)-2,3-dihydrobenzofuran-5-yl)methyl)acrylamide]
56 nM | 67 nM | 44 nM | 13 nM | C#Cc1ccc(-c2cc(CN(C)C(=O)C=C)c(CO)c3c2OCC3)cc1 [Compound 94, N-((7-(4-Ethynylphenyl)-4-(hydroxymethyl)-2,3-dihydrobenzofuran-5-yl)methyl)-N-methylacrylamide]
